Consider 2 compounds from patent publication US20140051661A1, “NOVEL LIPOGENIC INHIBITORS AND USES THEREOF” (The Texas A&M University System, priority 2011, published 2014).

Data set [1] deals with fatty acid synthase (FAS) mRNA. As to the kind of experiment: FAS mRNA levels in HepG2 cells by quantitative RT-PCR. Format: cell-based, human. Conditions: 30 μM (0.03 mM) compound, 6 hours, qRT-PCR. The protocol:
(§1) HepG2, HEK293 cells, and MEFs were cultured at 37° C. and 5% CO2 in Dulbecco's modified Eagle's medium (DMEM; Sigma), supplemented with […] of penicillin-streptomycin (GIBCO-BRL), 10% (or otherwise indicated) fetal bovine serum (Hyclone), and 20 mM Glutamine.
(§2) Total RNA was extracted from cells with Trizol (Invitrogen, Carlsbad, Calif.) and quantified with an Agilent 2100 Bioanalyzer (Agilent Technologies, Santa Clara, Calif.). For mRNA quantification, 2 ug of RNA was converted to cDNA with a High Capacity cDNA Reverse Transcription kit (Applied Biosystems, Foster City, Calif.), and transcript levels of relevant genes were determined by real-time, quantitative PCR with an ABI 7300 Real Time PCR machine according to the manufacturers instructions.
(§3) HepG2 and FAO cells as well as primary rat hepatocytes were cultured at 37° C. and 5% CO2 in Dulbecco's modified Eagle's medium (DMEM; Sigma, St. Louis, Mo.), supplemented with […] of penicillin-streptomycin (P/S, GIBCO-BRL), 10% fetal bovine serum (FBS, Hyclone) and 20 mM glutamine. Primary rat hepatocytes were isolated using a method as described previously (20), and plated onto collagen-coated 6-cm dishes (3×10^6 cell/dish) in DMEM containing 10% FBS; […] P/S, 20 mM glutamine, 100 nM insulin and 1 μM dexamethasone. After 4 hours of culture, non-adherent cells were washed away with 1×PBS. The remaining hepatocytes were cultured or treated in regular DMEM medium.
(§4) Total RNA was extracted from cells with Trizol (Invitrogen, Life Technologies, Carlsbad, Calif.) and quantified with an Agilent 2100 Bioanalyzer. For mRNA quantification, 2 μg of RNA was converted to cDNA with a High Capacity cDNA Reverse. Transcription kit (Applied Biosystems, Foster City, Calif.), and transcript levels of relevant genes were determined by real-time, quantitative PCR with an ABI 7300 Real Time PCR machine according to the manufacturer's instructions. (PCR primer information is available upon request)

For data set [2], the system named is HMG-CoA reductase (HMGCR) mRNA. As to the kind of experiment: HMG-CoA reductase mRNA levels in HepG2 cells by quantitative RT-PCR. Format: cell-based, human. Conditions: 6 hours; for HMG-CoA reductase mRNA levels: 0.03 mM compound. As for the experimental part: as §1, §2, §3, §4
Data set [3] deals with HepG2 cells. As to the kind of experiment: Cytotoxicity in HepG2 cells. Format: cell-based, human. Conditions: data not shown.
Data set [4] concerns 293 cells. As to the kind of experiment: Cytotoxicity in 293 cells. Conditions: 0.1 mM BF-102; data not shown. Format: cell-based.
Data set [5] deals with HepG2 cells. As to the kind of experiment: Palmitate synthesis in HepG2 cells (deuterated water GC/MS). Conditions: HepG2 cells as printed. Format: cell-based, human. The protocol: (§5) Quantitative measurement of fatty acids and cholesterol synthesis Fatty acids and cholesterol synthesis rate was determined using the deuterated water—GC/MS method as described previously.
In data set [6] the test system is HepG2 cells. As to the kind of experiment: Cholesterol synthesis in HepG2 cells (deuterated water GC/MS). Format: cell-based, human. Conditions: 20 μM, 12 hours. As for the experimental part: as §5
Data set [7] has as its system FAO cells. As to the kind of experiment: Palmitate synthesis rate in FAO cells (deuterium enrichment, GC/MS). Conditions: 20 μM, 12 hours, 100 nM insulin. Format: cell-based, rat. The protocol:
as §3, with “medium. Fatty acids and cholesterol synthesis rate was, determined using the deuterium enrichment method followed by GC/MS analysis. Briefly, cells were cultured in regular DMEM medium containing 10% 2H2O for 18 hours. Fatty acids and cholesterol were purified by extraction with organic solvents chloroform/methanol and quantitatively measured by GC/MS. The synthesis rates were presented as the percentage of ^2H-containing palmitate or cholesterol in total amount of palmitate or cholesterol.” for “medium.”

Data set [8] concerns FAO cells. As to the kind of experiment: Cholesterol synthesis rate in FAO cells (deuterium enrichment, GC/MS). Format: cell-based, rat. Conditions: 20 μM, 12 hours, 100 nM insulin. As for the experimental part: as §3, with “medium. Fatty acids and cholesterol synthesis rate was, determined using the deuterium enrichment method followed by GC/MS analysis. Briefly, cells were cultured in regular DMEM medium containing 10% 2H2O for 18 hours. Fatty acids and cholesterol were purified by extraction with organic solvents chloroform/methanol and quantitatively measured by GC/MS. The synthesis rates were presented as the percentage of ^2H-containing palmitate or cholesterol in total amount of palmitate or cholesterol.” for “medium.”

Data set [9] can be described thus: Toxic responses in mice under standard chow, osmotic pumps. Conditions: one week, total of 0.6 mg/g body weight by osmotic pumps. Format: in vivo.
Data set [10] deals with HMGCR mRNA. As to the kind of experiment: Hepatic HMGCR mRNA in HFD-fed mice by qRT-PCR. Conditions: 0.3 mg/g body weight, 1 week, osmotic pumps. Format: in vivo, C57BL/6J mice. The protocol:
(§6) Male C57BI/6J mice were purchased from The Jackson Laboratory at 8 weeks of age and were rendered insulin resistant by feeding an HFD (60% kcal from fat; D12492, Research Diets) for 4 weeks. Then the treatment with BF-102 or BF175 was performed for 1 week (osmotic pumps) or several weeks (in HFD).
as §4

Data set [11] deals with FAS mRNA. As to the kind of experiment: Hepatic FAS mRNA in HFD-fed mice by qRT-PCR. Conditions: 0.3 mg/g body weight, 1 week, osmotic pumps. Format: in vivo, C57BL/6J mice. The protocol:
as §6, §4

Consider `CC1(C)OB(c2ccc(C=Cc3ccc(O)cc3)cc2)OC1(C)C` [BF-102, 4-{2-[4-(4,4,5,5-Tetramethyl-[1,3,2]dioxaborolan-2-yl)-phenyl]-vinyl}-phenol], for which the results for the “FAS mRNA levels” value in data set [1] and in [1] (listed as BF-02) were “strong inhibition” and “significant decrease”, respectively. In data set [2], the “HMG-CoA reductase mRNA levels” value is on record as “strong inhibition”. Further, the “mRNA levels of HMGCR, dose dependence” value in data set [2] (indicated concentrations) is “dose-dependently decrease”. Besides, the “cytotoxicity in HepG2 cells” value in [3] (0.1 mM BF-102) is listed as “no significant cytotoxicity”. Besides, the “toxicity to HepG2 cells” value in data set [3] (at the doses used) is given as “not toxic”. In [4], the “cytotoxicity in 293 cells” value was “no significant cytotoxicity”. The palmitate synthesis result in [5] is “inhibits”. In addition, the cholesterol synthesis result in data set [6] was “inhibits”. In data set [7], the “synthesis rate of palmitate” value is listed as “significantly decrease”. Further, the “synthesis rate of cholesterol” value in data set [8] is given as “dramatically decrease”. The toxic responses entry in data set [9] is “no apparent toxic responses”. Further, the “reduction of hepatic mRNA levels of HMGCR vs DMSO controls” value in data set [10] is recorded as around 5 fold. Further, the “hepatic FAS mRNA levels” value in data set [11] is recorded as “significantly down regulated”.
Consider `CC1(C)OB(c2ccc(C=Cc3cc(Cl)cc(Cl)c3)cc2)OC1(C)C` [MD131, 3,5-dichloro-4/-(4,4,5,5-Tetramethyl-1,3,2-dioxaborolan-2-yl)stilbene], for which the “FAS mRNA levels” value in data set [1] is listed as “strong inhibition”. Besides, in [2], the “HMG-CoA reductase mRNA levels” value is listed as “strong inhibition”.
